This note sets out measurements from US20240366728A1, “Treatment of Diabetes Mellitus” (Carmot Therapeutics Inc., priority 2023, published 2024).

Entries after “also recorded” stand apart in the source; their conditions may differ. Marks after values point to notes of the source that are not given here.

The Cmax is the highest concentration seen after dosing. In general, half-life refers to the time in which the quantity being followed falls by half. The term EC50 denotes the concentration giving half of the maximal effect. One may read the Emax as the size of the effect at its maximum, as opposed to the concentration needed.

The subject of data set [1] is GIPR+/+ and GIPR-/- mice. Kind of data set: intraperitoneal glucose tolerance test in GIPR+/+ and GIPR-/- mice. Type of data set: in vivo, mouse.
Data set [2] deals with C57BL/6J-DIO mice. Kind of data set: intraperitoneal glucose tolerance test in DIO mice. Type of data set: in vivo, mouse. As to conditions: DIO mice; 20 nmol/kg.
A short description of data set [3]: in vivo. As to conditions: CD-1, mouse, plasma, sc.
Method: First reader's note: The heading '1 mg/kg SC mouse' is printed over the plot above the table and gives dose, route and species for the pharmacokinetic parameters.
The target of data set [4] is T1, human GIPR (Homo sapiens, UniProt P48546).
T1 sequence (P48546 22-466): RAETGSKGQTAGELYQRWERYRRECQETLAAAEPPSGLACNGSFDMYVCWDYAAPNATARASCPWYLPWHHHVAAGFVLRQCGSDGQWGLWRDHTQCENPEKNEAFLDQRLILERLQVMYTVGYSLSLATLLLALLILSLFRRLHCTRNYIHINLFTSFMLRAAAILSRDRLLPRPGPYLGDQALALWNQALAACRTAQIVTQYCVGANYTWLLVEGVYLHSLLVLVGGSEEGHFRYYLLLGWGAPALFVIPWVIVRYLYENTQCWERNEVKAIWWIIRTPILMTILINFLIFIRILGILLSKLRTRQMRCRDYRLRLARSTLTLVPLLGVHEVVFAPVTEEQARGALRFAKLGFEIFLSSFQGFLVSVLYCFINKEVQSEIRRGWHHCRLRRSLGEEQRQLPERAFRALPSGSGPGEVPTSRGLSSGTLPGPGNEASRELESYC
Nature of the data set: β-arrestin-2 recruitment (NanoBiT), human GIPR. Type of data set: cell-based. As to conditions: Table 17. The procedure:
To measure GLP-1R and GIPR-mediated β-arrestin recruitment, we utilized Promega's NanoBiT® technology or NanoLuc® Binary Technology. The NanoLuc luciferase is split into two subunits, called LgBiT and SmBIT, which are expressed in HEK293 cells as fusion proteins at the C-terminus of GLP-IR or GIPR and the N-terminus of β-arrestin-2. […] The next day, the media was removed and replaced with […] 1:100 dilution of Nano-Glo® Live Cell Substrate in Opti-MEM™ and equilibrated to room temperature for ten minutes. Background luminescence was measured before 10 nL compound was added using an ECHO Acoustic Liquid Handler.
To measure GLP-1R and GIPR-mediated β-arrestin recruitment, Promega's NanoBiT® technology or NanoLuc® Binary Technology were utilized. Both allow for the detection and quantification of protein: protein interactions in live cells (Samms et al., Trends Endocrinol Metab 31:410-21). The NanoLuc luciferase is split into two subunits, called LgBiT and SmBIT, which are expressed in HEK293 cells as fusion proteins at the C-terminus of GLP-1R or GIPR and the N-terminus of β-arrestin-2, respectively. […] Background luminescence was measured before 10 nL compound was added using an ECHO Acoustic Liquid Handler. Luminescence was measured at 1.5-minute intervals for 30 minutes.
(Activated receptors often draw arrestin, which recruitment assays turn into a signal.)

In data set [5] the test system is participants with obesity and participants with T2DM. Kind of data set: CT-868-003 crossover study: safety. It is filed as in vivo, human. Particulars: for Infections and infestations / Urinary tract infection: Table 24. From the text: Safety assessments of this study included treatment-emergent adverse events (TEAEs), serious adverse events (SAEs), adverse events of special interest (AESI), vital signs, 12-lead electrocardiogram (ECG), clinical lab evaluations, and physical exam.
Safety assessments which occurred throughout the entire study, included monitoring of incidence and severity of AEs, treatment-emergent AEs (TEAEs) and AEs of special interest (AESIs) (e.g., GI events, hypoglycemia), clinical laboratory abnormalities (ECGs, chemistry, hematology, and urinalysis), and changes in vital sign measurements (BP, heart rate, respiratory rate, and aural temperature).
AE terms recorded by the Investigator were coded to system organ class (SOC) and preferred term (PT) using the Medical Dictionary for Regulatory Activities (MedDRA) version 24.0. Severity was collected using the Common Terminology Criteria for AEs (CTCAE) version 5.0 Toxicity Grade. Events with missing severity were summarized as Grade 3. TEAEs summarized by severity counted each participant once for the maximum severity within each SOC and PT within each in-house treatment period and overall. TEAEs marked with a relationship to study treatment as definitely, probable, possible, or missing were considered as related TEAEs. Events with missing relationship to study treatment were summarized as related. The number and percentage of participants with TEAEs were summarized by MedDRA-coded SOCs and PTs.

Data set [6] in a line: toxicology studies. Particulars: highest dose tested.
Data set [7] deals with human GLP-1R (Homo sapiens, UniProt P43220). Kind of data set: cAMP accumulation, SNAP-human GLP-1R CHO-K1 cells. On the technique in general: cAMP levels reflect the balance of adenylyl cyclase and phosphodiesterase activity.
Chain of human GLP-1R (P43220 24-463): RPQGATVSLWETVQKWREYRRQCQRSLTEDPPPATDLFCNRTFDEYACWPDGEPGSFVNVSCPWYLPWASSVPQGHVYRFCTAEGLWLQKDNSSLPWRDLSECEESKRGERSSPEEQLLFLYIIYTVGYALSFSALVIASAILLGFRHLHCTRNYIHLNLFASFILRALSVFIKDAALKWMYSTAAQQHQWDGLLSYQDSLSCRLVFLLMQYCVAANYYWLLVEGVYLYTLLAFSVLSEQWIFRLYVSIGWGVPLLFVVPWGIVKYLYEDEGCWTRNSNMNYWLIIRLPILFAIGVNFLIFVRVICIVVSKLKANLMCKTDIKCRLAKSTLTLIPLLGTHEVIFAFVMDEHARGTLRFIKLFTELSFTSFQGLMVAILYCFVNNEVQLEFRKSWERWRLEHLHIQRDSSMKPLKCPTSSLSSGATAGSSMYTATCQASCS
[8] abbreviates: Part 1 (participants with obesity).
[9] abbreviates: Part 2 (participants with T2DM).

In the case of `CCCCCCCCCCCCCCCC(=O)N[C@@H](CCC(=O)NCCCC[C@H](NC(=O)[C@H](CO)NC(=O)[C@@H]1CCCN1C(=O)[C@@H]1CCCN1C(=O)[C@@H]1CCCN1C(=O)[C@H](C)NC(=O)CNC(=O)[C@H](CO)NC(=O)[C@H](CO)NC(=O)[C@@H]1CCCN1C(=O)CNC(=O)CNC(=O)[C@H](C)NC(=O)[C@H](CC(C)C)NC(=O)[C@H](CC(C)C)NC(=O)[C@H](Cc1c[nH]c2ccccc12)NC(=O)[C@H](CC(N)=O)NC(=O)[C@@H](NC(=O)[C@H](Cc1ccccc1)NC(=O)[C@H](CCC(=O)O)NC(=O)C(C)(C)NC(=O)[C@H](C)NC(=O)[C@H](C)NC(=O)[C@H](CCC(N)=O)NC(=O)[C@H](CCCCN)NC(=O)[C@H](CC(=O)O)NC(=O)[C@H](CC(C)C)NC(=O)[C@H](Cc1ccc(O)cc1)NC(=O)[C@@H](NC(=O)[C@H](CO)NC(=O)[C@H](Cc1ccc(O)cc1)NC(=O)[C@H](CC(=O)O)NC(=O)[C@H](CO)NC(=O)[C@@H](NC(=O)[C@H](Cc1ccccc1)NC(=O)[C@@H](NC(=O)CNC(=O)[C@H](CCC(=O)O)NC(=O)CSCC(=O)NCCN1C(=O)CSC1=O)[C@@H](C)O)[C@@H](C)O)[C@@H](C)CC)C(C)C)C(N)=O)C(=O)O` [CT-859], the “reduction in GLUC AUC in GTT” value in data set [1] (20 nmol/kg, 4 h after dosing) worked out at 62%. Besides, the “glucose lowering (in words)” value in data set [1] (20 and 200 nmol/kg) is “efficacious at lowering glucose levels”. Also, the “duration of glucose lowering (in words)” value in data set [1] (single 20 nmol/kg, ipGTT at 4, 24, 48 h) was “maintained its activity at 24 and 48 hours; also recorded: maintained significant reduction after 24 h and 48 h”. Further, the “glucose AUC 4 hours after administration (in words)” value in data set [2] is reported as “more efficacious than liraglutide in DIO mice”. In data set [3], this compound had a peak concentration (Cmax) of 324 nM and a half-life of 8.72 h.
In the case of `CCCCCCCCCCCCCCCC(=O)N[C@@H](CCC(=O)NCCCC[C@H](NC(=O)[C@H](CO)NC(=O)[C@@H]1CCCN1C(=O)[C@@H]1CCCN1C(=O)[C@@H]1CCCN1C(=O)[C@H](C)NC(=O)CNC(=O)[C@H](CO)NC(=O)[C@H](CO)NC(=O)[C@@H]1CCCN1C(=O)CNC(=O)CNC(=O)[C@H](C)NC(=O)[C@H](CC(C)C)NC(=O)[C@H](CC(C)C)NC(=O)[C@H](Cc1c[nH]c2ccccc12)NC(=O)[C@H](CC(N)=O)NC(=O)[C@@H](NC(=O)[C@H](Cc1ccccc1)NC(=O)[C@H](CCC(=O)O)NC(=O)C(C)(C)NC(=O)[C@H](C)NC(=O)[C@H](C)NC(=O)[C@H](CCC(N)=O)NC(=O)[C@H](CCCCN)NC(=O)[C@H](CC(=O)O)NC(=O)[C@H](CC(C)C)NC(=O)[C@H](Cc1ccc(O)cc1)NC(=O)[C@@H](NC(=O)[C@H](CO)NC(=O)[C@H](Cc1ccc(O)cc1)NC(=O)[C@H](CC(=O)O)NC(=O)[C@H](CO)NC(=O)[C@@H](NC(=O)[C@H](Cc1ccccc1)NC(=O)[C@@H](NC(=O)CNC(=O)[C@H](CCC(=O)O)NC(=O)CSCC(=O)NCCN1CCCCC1=O)[C@@H](C)O)[C@@H](C)O)[C@@H](C)CC)C(C)C)C(N)=O)C(=O)O` [CT-868], the EC50 in data set [4] (read-out: hGIPR β-arrestin-2 EC50) was 13 nM. The Emax in data set [4] (read-out: hGIPR β-arrestin-2 % Emax) was 1%. In data set [5] (setting [8]), the Infections and infestations is given as 0 n (%); the Urinary tract infection is on record as 0 n (%). In data set [5] (setting [9]), the Infections and infestations is recorded as 0 n (%); the Urinary tract infection is 0 n (%). In data set [5] (in vivo), the “AEs of Special Interest (AESI) Total” value is 10 (50.0) n (%); the “Any AESIs, Grade 2” value is recorded as 1 (8.3%) n (%); the Arthralgia is listed as 0 n (%); the “At Least 1 Study Drug Related TEAE” value is listed as 9 (45.0) n (%). Also, in data set [5] (in vivo), the “At Least 1 TEAE” value is on record as 14 (70.0) n (%), the Back pain is on record as 0 n (%), the Coagulation test abnormal is recorded as 0 n (%) and the Dermatitis is 0 n (%). Besides, in data set [5] (in vivo), the “GI side effects (in words)” value is “mostly mild and transient”; the Hypoglycemia was 7 (35.0) n (%); the “Injection Site Reaction” value is listed as 1 (5.0) n (%); the Investigations was 0 n (%). For the same compound, in data set [5] (in vivo), the “Musculoskeletal and connective tissue disorders” value is 0 n (%); the SAEs is on record as 0 n (%); the “Treatment Discontinuation” value was 1 (5.0)* n (%); the “participants with Grade 1 hypoglycemia events” value is 7 participants. In data set [5] (in vivo), the “tolerability (in words)” value is “well tolerated” and the “vital signs, ECG parameters, laboratory values (in words)” value was “no clinically significant CT-868-related changes”. The “tolerability in toxicology studies (in words)” value in data set [6] is reported as “well-tolerated at the highest dose tested”. The Emax in data set [7] (CHO-K1, read-out: hGLP-1R cAMP (-alb) % Emax) was 92%. Further, the EC50 in data set [7] (potency activating cAMP at human GLP-1R, value of b126) is about 0.17 nM.
